# Experimental data published in ChEMBL document CHEMBL1201862, “PubChem BioAssay data set” (2004).
# Calls of active or inactive are those of the source.
# Key:
# Assay type in all cases: functional
# [1] = target: Melanin-concentrating hormone receptor 1 (Homo sapiens, UniProt Q99705); experiment: Late-stage fluorescence-based counterscreen for antagonists of the G-protein coupled receptor 7 (GPR7): cell-based dose response assay to identify antagonists of the melanin-concentrating hormone receptor 1 (MCHR1) Set 6.
# Chain of Melanin-concentrating hormone receptor 1 (Q99705 whole entry): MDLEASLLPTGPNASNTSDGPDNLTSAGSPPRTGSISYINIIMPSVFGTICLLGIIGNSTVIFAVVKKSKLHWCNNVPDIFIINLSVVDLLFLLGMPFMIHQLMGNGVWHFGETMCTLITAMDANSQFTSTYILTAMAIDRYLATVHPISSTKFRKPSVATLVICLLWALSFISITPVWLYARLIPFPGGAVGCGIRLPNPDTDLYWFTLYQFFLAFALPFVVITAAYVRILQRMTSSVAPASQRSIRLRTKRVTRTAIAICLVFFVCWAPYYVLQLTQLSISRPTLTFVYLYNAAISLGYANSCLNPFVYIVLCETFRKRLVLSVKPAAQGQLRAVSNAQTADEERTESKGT
# [2] = target: Neuropeptides B/W receptor type 1 (Homo sapiens, UniProt P48145); experiment: human NPBW1 receptor blockade, IC50 – cell-based, fluorescence, dose response, set 6, late-stage follow-up (AID 588583)
# Chain of Neuropeptides B/W receptor type 1 (P48145 whole entry): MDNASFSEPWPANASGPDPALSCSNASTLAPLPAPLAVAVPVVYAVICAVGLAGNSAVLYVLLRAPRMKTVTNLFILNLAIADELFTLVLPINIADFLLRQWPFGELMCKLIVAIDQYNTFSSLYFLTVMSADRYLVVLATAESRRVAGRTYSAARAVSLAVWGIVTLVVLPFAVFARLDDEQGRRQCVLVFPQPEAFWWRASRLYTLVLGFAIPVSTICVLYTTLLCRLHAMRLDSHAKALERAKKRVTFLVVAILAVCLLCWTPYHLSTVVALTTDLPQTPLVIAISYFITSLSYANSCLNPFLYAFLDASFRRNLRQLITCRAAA
# [3] = target: Glycogen synthase kinase-3 beta (Homo sapiens, UniProt P49841); experiment: inhibition of human GSK3B activity – biochemical, microfluidics, dry powder samples, set 2, dose response (AID 623989)
# Chain of Glycogen synthase kinase-3 beta (P49841 whole entry): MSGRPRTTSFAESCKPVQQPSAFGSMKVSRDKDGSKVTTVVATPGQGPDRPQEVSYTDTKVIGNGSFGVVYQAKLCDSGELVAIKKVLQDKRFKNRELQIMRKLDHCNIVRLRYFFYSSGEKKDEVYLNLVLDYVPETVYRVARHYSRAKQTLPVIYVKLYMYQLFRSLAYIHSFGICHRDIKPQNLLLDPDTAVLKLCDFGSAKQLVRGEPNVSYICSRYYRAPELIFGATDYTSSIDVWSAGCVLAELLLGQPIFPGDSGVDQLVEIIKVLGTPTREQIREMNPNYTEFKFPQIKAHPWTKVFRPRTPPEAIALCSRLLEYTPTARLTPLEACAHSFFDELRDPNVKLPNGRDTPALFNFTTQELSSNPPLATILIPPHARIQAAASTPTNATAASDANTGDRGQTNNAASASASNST
# [4] = THP-1 cell cytotoxicity, cytotoxicity control, set 4 (AID 504911); details: Mycobacterium tuberculosis
# [5] = THP-1 cell cytotoxicity, dose response, cytotoxicity control, set 3 (AID 504852); details: Mycobacterium tuberculosis
# [6] = Vero cell cytotoxicity, dose response, cytotoxicity control for M. tuberculosis growth inhibitor project, Vero cells, purified and synthesized compounds, set 4 (AID 504854); details: Mycobacterium tuberculosis
# [7] = Vero cell cytotoxicity, dose response, cytotoxicity control for M. tuberculosis growth inhibitor project, Vero cells, purified and synthesized compounds, set 5 (AID 504909); details: Mycobacterium tuberculosis
compound,measurement,setting,value
N#CC(c1cccc(Cl)c1)c1c(Cl)cnn(Cc2cccc3ccccc23)c1=O (configuration not stated),IC50,[1],0.26 µM (active)
same,IC50,[2],0.26 µM (active)
COc1ccc(/C=C2\SC(NCc3ccccc3)=NC2=O)cc1,AC50,[3],6.02 µM (active)
COc1cccc(NC(=O)CSc2nc3ccccc3c(=O)[nH]2)c1,CC50,[4],> 100 µM (active)
same,CC50,[5],> 100 µM (active)
same,CC50,[6],> 100 µM (active)
same,CC50,[7],> 100 µM (active)
